# Data as given in patent US10478464B2, “Compositions and methods of use” (priority 2009, dated 2019).
# Assays:
# HOP92 cells = test: Lung cancer xenograft mouse model (HOP92); format: in vivo, BALB/c nu/nu mice; settings: for Mean ± SEM Tumor Volume (HOP-92): 10 mg/kg IP
# Excerpt: The purpose of this study was to determine anti tumor efficacy of 8-HHA in lung cancer using HOP92 cells.
# (§1) Animals and care: Thirty BABL/c nude, non-pregnant and nulliparous female mice that are 5-6 weeks old and weighing 16-20 gms were used in this study. BALB/c nu/nu mice were used because they have been historically used in xenograft studies to test anti-tumor efficacy of drug candidates. Mice were acclimatized for minimum 5 days, under same conditions as for the actual test. Mice were housed at room temperature 68±5° F. with room Relative Humidity of 30-70%, air Exchanges per Hour of a minimum of 10 changes per hour, lights exposure of 12-hour light/dark cycle, full spectrum fluorescent lights. The mice were housed in groups in ventilated micro-isolator cages made up of polycarbonate. The mice were using autoclaved laboratory grade bedding and were provided ad libitum with irradiated pellets and autoclaved water. There were no known contaminants present in the feed, water, or bedding expected to interfere with the test data. The laboratory and animal rooms were maintained as limited-access facilities.
# Route of injection and dose: 8-HHA was administered through intraperitoneal (IP) injection.
# (§2) Tumor Induction: The cell line HOP92 were cultured according to recommended specifications at Vanas Oncology as above discussed in Example 20. Cells were trypizinized and counted using the Trypan-blue viability test using a hemocytometer. Cell counts in quadrants of the hemocytometer were converted to a cells/mL value, which will enable isolation of the appropriate number of cells per mouse. Each mouse was inoculated subcutaneously in the right flank region with 0.2 mL of a 50% RPMI/50% Matrigel™ mixture containing a suspension of tumor cells (5×10^6 cells/mouse). Tumors were observed twice weekly until well established. Tumor volume was calculated using the formula: Tumor weight (mg)=(a×b^2/2) where ‘b’ is the smallest diameter and ‘a’ is the largest diameter in millimeters.
# (§3) Allocation of Animals: Once the established tumors reach a mean calculated volume of approximately 50-100 mg, the mice were randomized, using appropriate software, into treatment groups in order to reduce the variability of tumor sizes per group.
# (§4) Pre Dose Procedure: Acclimated animals were weighed and observed for clinical signs of toxicity prior to dosing on Day 1.
# The first day of dosing is Day 1. On Day 1,8-HHA, and vehicle injections are administered according to the study design in Table 9 below.
# (§5) Post Dose Procedure: Following treatment, tumor and mouse body weight measurements were recorded twice weekly and gross observation was made at least once daily. Mice with tumors that were not palpable was considered complete regressions. Percentage of mice mortality and time of death were recorded for every group in the study. Animals may be defined as moribund and sacrificed if one or more of the following criteria are met: • Loss of body weight of 20% or greater in a 1 week period. • Mice that inhibit normal physiological function such as eating, drinking, mobility, and ability to urinate and/or defecate. • Tumors that exceed a maximum size of 2000 mg as measured by calipers. • Ulcerated tumors, or tumors that bleed or produce exudates. • Prolonged, excessive diarrhea leading to excessive weight loss (>20%). • Persistent wheezing and respiratory distress. • Prolonged or excessive pain or distress as defined by clinical observations such as: prostration, hunched posture, paralysis/paresis, distended abdomen, ulcerations, abscesses, seizures, and/or hemorrhages.
# [1] = Water solubility (statement); format: physicochemical
# [2] = system: PLC/PRF/5 liver cancer cell line; test: Cell survival, colorimetric MTT assay, PLC/PRF/5; format: cell-based; settings: 100 μM, 72 hours
# Method: (§6) 2) Against the liver cancer cell lines: The effect of the racemic mixture of 8-HHA and that of the individual enantiomers, namely S and R enantiomers, were examined on survival of PLC/PRF/5 (also referred to as “PLC-5” or “PLC5”), Hep3B and SNU449 (also referred to as “SNU”) liver cancer cell lines. The cell viability was examined in the exponential growth phase with 100 μM of 8-HHA for 72 hours using colorimetric MTT assay. In separate assays, PLC-5 cells were treated with different concentrations of S-enantiomer of 8-HHA ranging from 20-100 μM for 72 hours.
# [3] = system: SNU449 liver cancer cell line; test: Cell survival, colorimetric MTT assay, SNU449; format: cell-based; settings: 100 μM, 72 hours
# Method: as §6
# [4] = system: PLC5 cells a Hepatocellular Carcinoma cell line; test: Liver xenograft mouse model (PLC5); format: in vivo, BALB/c nu/nu mice
# Excerpt: The purpose of this study was to determine anti tumor efficacy of 8-HHA in liver cancer using PLC5 cells a Hepatocellular Carcinoma cell line. The tumor growth and animal survival were considered as primary end point.
# as §1
# Route of injection and dose: 8-HHA was administered through intraperitoneal (IP) injection. […] For this study, 2 doses-10 mg/kg and 100 mg/kg were used.
# as §2, with “PLC5” for “HOP92”, “Oncology,” for “Oncology as above discussed”, “which cells were grown and maintained in RPMI medium containing 10% fetal bovine serum, 2 mM L-Glutamine, 100 units/ml of Streptomycin and 100 units/ml of Penicilin.” for “Example 20.”
# as §3, §4
# The first day of dosing is Day 1. On Day 1,8-HHA, and vehicle injections were administered according to the study design in Table 7 below.
# as §5, with “that are” for “that were”, “death will be” for “death were”
# [5] = both T1 (10 mg/Kg) and T2 (100 mg/Kg)
structure (smiles),measurement,setting,value
"CCCCCCCCC(O)CCCCCCC(=O)O (racemic) [Sample 8-HHA, 8-hydroxy-palmitic acid]",Mean ± SEM Tumor Volume (HOP-92),HOP92 cells; Day 16,88.78±28.61 mm^3
same,Mean ± SEM Tumor Volume (HOP-92),HOP92 cells; Day 18,82.02±25.93 mm^3
same,decrease in tumor volume vs control group,"HOP92 cells; T1 10 mg/Kg, day 16",58.6%
same,decrease in tumor volume vs control group,"HOP92 cells; T1 10 mg/Kg, day 18",68.2%
same,decrease in tumor volume vs control group,"HOP92 cells; T2 100 mg/Kg, day 16",56.5%
same,decrease in tumor volume vs control group,"HOP92 cells; T2 100 mg/Kg, day 18",73.1%
same,"tumor growth inhibition, in words",HOP92 cells; [5],significantly inhibited tumor growth in mice from day 16
same,water solubility,[1],poorly water soluble
same,reduced the survival of PLC-5 cell line by,[2],52%
same,effect on survival of SNU cell line,[3],no major effect
same,tumor volume decrease compared to the control group,"[4]; T1 10 mg/Kg, day 4",44.5%
same,tumor volume decrease compared to the control group,"[4]; T1 10 mg/Kg, day 9",49.8%
same,tumor volume decrease compared to the control group,"[4]; T1 10 mg/Kg, day 11",72.3%
same,tumor volume decrease compared to the control group,"[4]; T1 10 mg/Kg, day 16",77.7%
same,tumor volume decrease compared to the control group,"[4]; T1 10 mg/Kg, day 18",78.4%
same,tumor volume decrease compared to the control group,"[4]; T2 100 mg/Kg, day 4",56.3%
same,tumor volume decrease compared to the control group,"[4]; T2 100 mg/Kg, day 9",61.1%
same,tumor volume decrease compared to the control group,"[4]; T2 100 mg/Kg, day 11",81.1%
same,tumor volume decrease compared to the control group,"[4]; T2 100 mg/Kg, day 16",87.9%
same,tumor volume decrease compared to the control group,"[4]; T2 100 mg/Kg, day 18",88.3%
same,"tumor growth inhibition, in words",[4]; [5],significantly inhibited tumor growth in mice from day 4
